# In publication PMC4456249 (Structure (London, England : 1993), 2015):
# What was measured:
# CCL5 = details: ref Mizumoto et al., 2013; cited from earlier work
# NMR = target: the molecule itself; experiment: NMR
Molecule,Affinity for CCL5 (CCL5),"ratio of dimer-to-monomer (30 uM, 40 °C, without CS444) (NMR)",stoichiometry N (NMR)
chondroitin sulfate [CS],submicromolar affinities,,
dermatan sulfate [DS],submicromolar affinities,,
E66S CCL5 (natural protein) MSPYSSDTTPCCFAYIARPLPRAHIKEYFYTSGKCSNPAVVFVTRKNRQVCANPEKKWVREYINSLSMS,,~1,2
